Source: patent publication US10844077B2, “Thiazolyl-containing compounds for treating proliferative diseases” (Dana-Farber Cancer Institute, Inc., priority 2014, dated 2020)
Values joined by “and” are separate entries in the source; they are usually repeats but may differ in a detail not shown here. Equal entries are not always repeated. Where two headings read alike, the source gives them in different places.

How the values were obtained:
Assay type in all cases: cell-based
CHK1 = CHK1 (Homo sapiens (Human), UniProt O14757); assay: KINATIV assay; conditions: 1 μM, 90 minutes, BCWM.1 cells
Sequence of CHK1 (O14757 whole entry): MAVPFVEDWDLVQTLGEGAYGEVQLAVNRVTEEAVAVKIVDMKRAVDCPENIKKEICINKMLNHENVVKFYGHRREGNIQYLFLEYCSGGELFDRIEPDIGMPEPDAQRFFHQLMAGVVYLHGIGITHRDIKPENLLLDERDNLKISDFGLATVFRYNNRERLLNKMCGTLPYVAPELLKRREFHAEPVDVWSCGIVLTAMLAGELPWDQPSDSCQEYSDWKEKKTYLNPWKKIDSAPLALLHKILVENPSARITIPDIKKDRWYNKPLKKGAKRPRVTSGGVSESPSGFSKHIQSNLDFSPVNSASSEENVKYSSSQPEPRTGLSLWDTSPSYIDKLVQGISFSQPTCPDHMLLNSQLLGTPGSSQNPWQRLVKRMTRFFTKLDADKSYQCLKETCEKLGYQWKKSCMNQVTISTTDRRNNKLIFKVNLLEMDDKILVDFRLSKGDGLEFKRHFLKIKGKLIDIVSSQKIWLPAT
In short: (§1)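 Chemoproteomic format: endogenous kinases in cell lysate were tagged by an ATP-biotin probe and quantitated by ACTIVX.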

CHK2 = CHK2 (Homo sapiens (Human), UniProt O96017); assay: KINATIV assay; conditions: 1 μM, 90 minutes, BCWM.1 cells
In short: as §1

MAP2K4 = MAP2K4 (Homo sapiens (Human), UniProt P45985); assay: KINATIV assay; conditions: 1 μM, 90 minutes, BCWM.1 cells
Sequence of MAP2K4 (P45985 whole entry): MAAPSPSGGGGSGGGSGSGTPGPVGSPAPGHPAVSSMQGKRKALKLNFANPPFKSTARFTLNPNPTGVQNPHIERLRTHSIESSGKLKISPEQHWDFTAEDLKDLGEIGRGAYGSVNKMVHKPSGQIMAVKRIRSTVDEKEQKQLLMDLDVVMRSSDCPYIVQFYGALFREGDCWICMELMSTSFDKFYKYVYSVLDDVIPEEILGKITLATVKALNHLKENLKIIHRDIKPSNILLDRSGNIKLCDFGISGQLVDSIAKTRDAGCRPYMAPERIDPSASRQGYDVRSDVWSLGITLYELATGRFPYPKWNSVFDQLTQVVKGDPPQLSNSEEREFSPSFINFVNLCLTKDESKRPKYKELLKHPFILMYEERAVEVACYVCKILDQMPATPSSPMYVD
In short: as §1

MAP2K5 = MAP2K5 (Homo sapiens (Human), UniProt Q13163); assay: KINATIV assay; conditions: 1 μM, 90 minutes, BCWM.1 cells
Sequence of MAP2K5 (Q13163 whole entry): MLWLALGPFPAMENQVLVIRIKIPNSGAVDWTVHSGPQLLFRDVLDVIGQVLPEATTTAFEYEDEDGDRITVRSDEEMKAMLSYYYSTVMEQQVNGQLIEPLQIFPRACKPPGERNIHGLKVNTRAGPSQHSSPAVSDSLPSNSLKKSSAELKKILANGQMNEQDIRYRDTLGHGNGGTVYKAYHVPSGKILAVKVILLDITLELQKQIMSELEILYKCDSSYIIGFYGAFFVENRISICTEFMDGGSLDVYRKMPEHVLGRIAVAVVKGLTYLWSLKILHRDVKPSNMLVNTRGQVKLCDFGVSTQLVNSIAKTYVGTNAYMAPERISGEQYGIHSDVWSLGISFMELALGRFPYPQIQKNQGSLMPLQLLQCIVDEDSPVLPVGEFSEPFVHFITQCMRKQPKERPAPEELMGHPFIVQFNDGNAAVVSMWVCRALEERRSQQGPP
In short: as §1

MST3 = MST3 (Homo sapiens (Human), UniProt Q9Y6E0); assay: KINATIV assay; conditions: 1 μM, 90 minutes, BCWM.1 cells
Sequence of MST3 (Q9Y6E0 whole entry): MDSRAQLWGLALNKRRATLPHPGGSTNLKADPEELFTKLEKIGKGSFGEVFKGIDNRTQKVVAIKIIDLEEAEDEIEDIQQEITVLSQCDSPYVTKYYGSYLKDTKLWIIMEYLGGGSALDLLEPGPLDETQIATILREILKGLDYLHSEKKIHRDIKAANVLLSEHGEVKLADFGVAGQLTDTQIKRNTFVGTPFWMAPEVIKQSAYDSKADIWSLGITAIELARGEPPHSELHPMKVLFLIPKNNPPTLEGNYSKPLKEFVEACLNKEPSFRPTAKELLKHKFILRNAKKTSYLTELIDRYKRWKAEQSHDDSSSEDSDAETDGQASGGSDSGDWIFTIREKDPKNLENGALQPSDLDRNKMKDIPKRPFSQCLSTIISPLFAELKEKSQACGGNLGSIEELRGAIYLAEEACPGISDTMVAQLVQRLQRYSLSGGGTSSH
In short: as §1

SMG1 = SMG1 (Homo sapiens (Human), UniProt Q96Q15); assay: KINATIV assay; conditions: 1 μM, 90 minutes, BCWM.1 cells
In short: as §1

kinases in BCWM.1 cells [1] = target: kinases in BCWM.1 cells (Homo sapiens, UniProt O00329); conditions: PIK3CD; ATP; 1 μM, 90 min; GF
Procedure: (§2) The cells were harvested and lysed. […] Bound kinases were identified and quantitated by ACTIVX as described in Patricelli et al., Biochemistry, 2007, 46(2): 350-358. The compounds were tested in duplicates against duplicate or quadruplicate control samples.

kinases in BCWM.1 cells [2] = target: kinases in BCWM.1 cells (Homo sapiens, UniProt O95747); conditions: OSR1; Lys2; 1 μM, 90 min; GF
Procedure: as §2

kinases in BCWM.1 cells [3] = target: kinases in BCWM.1 cells (Homo sapiens, UniProt O95819)
Procedure: as §2

kinases in BCWM.1 cells [4] = target: kinases in BCWM.1 cells (Homo sapiens, UniProt P04049); conditions: RAF1; Lys2; 1 μM, 90 min; GF
Procedure: as §2

kinases in BCWM.1 cells [5] = target: kinases in BCWM.1 cells (Homo sapiens, UniProt P12931); conditions: SRC; Lys1; 1 μM, 90 min; GF
Procedure: as §2

kinases in BCWM.1 cells [6] = target: kinases in BCWM.1 cells (Homo sapiens, UniProt P15735); conditions: PHKg2; Lys1; 1 μM, 90 min; GF
Procedure: as §2

kinases in BCWM.1 cells [7] = target: kinases in BCWM.1 cells (Homo sapiens, UniProt P19525); conditions: PKR; Lys2; 1 μM, 90 min; GF
Procedure: as §2

kinases in BCWM.1 cells [8] = target: kinases in BCWM.1 cells (Homo sapiens, UniProt P21127); conditions: PITSLRE; Lys2; 1 μM, 90 min; GF
Procedure: as §2

kinases in BCWM.1 cells [9] = target: kinases in BCWM.1 cells (Homo sapiens, UniProt P48426); conditions: PIP4K2A; ATP; 1 μM, 90 min; GF
Procedure: as §2

kinases in BCWM.1 cells [10] = target: kinases in BCWM.1 cells (Homo sapiens, UniProt P51957); conditions: NEK4; Lys2; 1 μM, 90 min; GF
Procedure: as §2

kinases in BCWM.1 cells [11] = target: kinases in BCWM.1 cells (Homo sapiens, UniProt Q13523); conditions: PRP4; Lys2; 1 μM, 90 min; GF
Procedure: as §2

kinases in BCWM.1 cells [12] = target: kinases in BCWM.1 cells (Homo sapiens, UniProt Q16512); conditions: PKN1; Lys1; 1 μM, 90 min; GF
Procedure: as §2

kinases in BCWM.1 cells [13] = target: kinases in BCWM.1 cells (Homo sapiens, UniProt Q6PHR2); conditions: ULK3; Lys2; 1 μM, 90 min; GF
Procedure: as §2

kinases in BCWM.1 cells [14] = target: kinases in BCWM.1 cells (Homo sapiens, UniProt Q7RTN6); conditions: STLK5; Activation Loop; 1 μM, 90 min; GF
Procedure: as §2

kinases in BCWM.1 cells [15] = target: kinases in BCWM.1 cells (Homo sapiens, UniProt Q8TD19); conditions: NEK9; Lys2; 1 μM, 90 min; GF
Procedure: as §2

kinases in BCWM.1 cells [16] = target: kinases in BCWM.1 cells (Homo sapiens, UniProt Q96S44); conditions: PRPK; ATP Loop; 1 μM, 90 min; GF
Procedure: as §2

kinases in BCWM.1 cells [17] = target: kinases in BCWM.1 cells (Homo sapiens, UniProt Q9H2G2); conditions: SLK; Lys2; 1 μM, 90 min; GF
Procedure: as §2

kinases in BCWM.1 cells [18] = target: kinases in BCWM.1 cells (Homo sapiens, UniProt Q9UBF8); conditions: PI4KB; ATP; 1 μM, 90 min; GF
Procedure: as §2

CDK5 = CDK5 (Homo sapiens (Human), UniProt Q00535); assay: KINATIV assay; conditions: 1 μM, 90 minutes, BCWM.1 cells
Sequence of CDK5 (Q00535 whole entry): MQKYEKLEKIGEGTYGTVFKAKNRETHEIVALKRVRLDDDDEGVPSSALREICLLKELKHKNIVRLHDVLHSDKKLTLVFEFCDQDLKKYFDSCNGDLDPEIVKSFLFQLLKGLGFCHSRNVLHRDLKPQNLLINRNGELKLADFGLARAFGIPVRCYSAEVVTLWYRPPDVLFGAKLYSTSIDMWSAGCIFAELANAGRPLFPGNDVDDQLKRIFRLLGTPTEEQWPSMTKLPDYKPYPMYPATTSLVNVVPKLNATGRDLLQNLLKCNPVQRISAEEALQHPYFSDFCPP
In short: as §1

IRAK4 = IRAK4 (Homo sapiens (Human), UniProt Q9NWZ3); assay: KINATIV assay; conditions: 1 μM, 90 minutes, BCWM.1 cells
In short: as §1

LOK = LOK (Homo sapiens (Human), UniProt O94804); assay: KINATIV assay; conditions: 1 μM, 90 minutes, BCWM.1 cells
Sequence of LOK (O94804 whole entry): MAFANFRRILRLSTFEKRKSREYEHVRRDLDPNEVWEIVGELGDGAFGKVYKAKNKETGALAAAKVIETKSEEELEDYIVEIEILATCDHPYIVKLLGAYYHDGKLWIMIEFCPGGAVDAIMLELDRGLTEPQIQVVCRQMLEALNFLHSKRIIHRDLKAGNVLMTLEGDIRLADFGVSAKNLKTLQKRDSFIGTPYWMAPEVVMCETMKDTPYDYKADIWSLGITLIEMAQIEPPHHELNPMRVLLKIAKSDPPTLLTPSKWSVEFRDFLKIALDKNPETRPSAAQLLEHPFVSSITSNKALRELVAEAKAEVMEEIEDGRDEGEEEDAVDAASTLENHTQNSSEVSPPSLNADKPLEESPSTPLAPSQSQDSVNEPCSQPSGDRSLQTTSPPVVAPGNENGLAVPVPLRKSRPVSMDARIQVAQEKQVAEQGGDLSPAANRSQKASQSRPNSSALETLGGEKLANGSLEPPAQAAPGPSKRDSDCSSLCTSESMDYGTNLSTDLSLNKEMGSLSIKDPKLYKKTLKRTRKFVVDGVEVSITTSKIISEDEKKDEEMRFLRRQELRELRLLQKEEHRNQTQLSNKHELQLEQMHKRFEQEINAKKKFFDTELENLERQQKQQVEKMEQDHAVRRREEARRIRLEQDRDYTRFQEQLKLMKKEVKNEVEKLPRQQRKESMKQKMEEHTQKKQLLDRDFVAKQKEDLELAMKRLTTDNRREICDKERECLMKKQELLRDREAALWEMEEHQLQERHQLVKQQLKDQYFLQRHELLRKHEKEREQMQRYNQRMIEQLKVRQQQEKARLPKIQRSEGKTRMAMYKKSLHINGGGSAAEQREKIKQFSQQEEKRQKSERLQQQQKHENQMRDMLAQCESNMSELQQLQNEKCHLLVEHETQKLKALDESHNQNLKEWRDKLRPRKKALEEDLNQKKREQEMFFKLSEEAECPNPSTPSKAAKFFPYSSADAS
In short: as §1

MAP2K3 = MAP2K3 (Homo sapiens (Human), UniProt P46734); assay: KINATIV assay; conditions: 1 μM, 90 minutes, BCWM.1 cells
Sequence of MAP2K3 (P46734 whole entry): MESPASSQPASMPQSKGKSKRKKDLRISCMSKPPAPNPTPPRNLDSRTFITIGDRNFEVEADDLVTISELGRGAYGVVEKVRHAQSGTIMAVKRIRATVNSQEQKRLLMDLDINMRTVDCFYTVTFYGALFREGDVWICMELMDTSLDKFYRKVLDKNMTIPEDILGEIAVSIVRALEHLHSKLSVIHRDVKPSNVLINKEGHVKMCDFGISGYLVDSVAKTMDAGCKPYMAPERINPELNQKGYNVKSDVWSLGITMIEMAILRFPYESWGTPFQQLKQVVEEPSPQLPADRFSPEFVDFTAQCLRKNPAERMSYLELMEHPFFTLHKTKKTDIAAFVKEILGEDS
In short: as §1

PLK1 = PLK1 (Homo sapiens (Human), UniProt P53350); assay: KINATIV assay; conditions: 1 μM, 90 minutes, BCWM.1 cells
Sequence of PLK1 (P53350 whole entry): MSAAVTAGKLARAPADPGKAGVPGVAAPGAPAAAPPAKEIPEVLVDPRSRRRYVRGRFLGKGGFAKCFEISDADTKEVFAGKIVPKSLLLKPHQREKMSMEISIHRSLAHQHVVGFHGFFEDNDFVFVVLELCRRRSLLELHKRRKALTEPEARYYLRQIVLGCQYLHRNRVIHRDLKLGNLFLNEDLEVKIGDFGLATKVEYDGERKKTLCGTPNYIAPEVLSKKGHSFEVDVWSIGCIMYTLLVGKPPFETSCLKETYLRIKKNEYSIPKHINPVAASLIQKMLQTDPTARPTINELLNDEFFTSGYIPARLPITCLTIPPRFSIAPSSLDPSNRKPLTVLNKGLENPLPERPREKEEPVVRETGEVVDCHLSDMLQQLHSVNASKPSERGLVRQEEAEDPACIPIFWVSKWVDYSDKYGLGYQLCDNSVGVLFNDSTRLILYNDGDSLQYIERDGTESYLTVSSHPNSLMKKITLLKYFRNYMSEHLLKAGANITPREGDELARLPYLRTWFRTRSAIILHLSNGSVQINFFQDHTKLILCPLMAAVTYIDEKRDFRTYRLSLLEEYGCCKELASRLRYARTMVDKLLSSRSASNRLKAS
In short: as §1

RSK1 domain 1 = RSK1 domain 1 (Homo sapiens (Human), UniProt Q15418); assay: KINATIV assay; conditions: 1 μM, 90 minutes, BCWM.1 cells
Sequence of RSK1 domain 1 (Q15418 whole entry, the tested form may be a part): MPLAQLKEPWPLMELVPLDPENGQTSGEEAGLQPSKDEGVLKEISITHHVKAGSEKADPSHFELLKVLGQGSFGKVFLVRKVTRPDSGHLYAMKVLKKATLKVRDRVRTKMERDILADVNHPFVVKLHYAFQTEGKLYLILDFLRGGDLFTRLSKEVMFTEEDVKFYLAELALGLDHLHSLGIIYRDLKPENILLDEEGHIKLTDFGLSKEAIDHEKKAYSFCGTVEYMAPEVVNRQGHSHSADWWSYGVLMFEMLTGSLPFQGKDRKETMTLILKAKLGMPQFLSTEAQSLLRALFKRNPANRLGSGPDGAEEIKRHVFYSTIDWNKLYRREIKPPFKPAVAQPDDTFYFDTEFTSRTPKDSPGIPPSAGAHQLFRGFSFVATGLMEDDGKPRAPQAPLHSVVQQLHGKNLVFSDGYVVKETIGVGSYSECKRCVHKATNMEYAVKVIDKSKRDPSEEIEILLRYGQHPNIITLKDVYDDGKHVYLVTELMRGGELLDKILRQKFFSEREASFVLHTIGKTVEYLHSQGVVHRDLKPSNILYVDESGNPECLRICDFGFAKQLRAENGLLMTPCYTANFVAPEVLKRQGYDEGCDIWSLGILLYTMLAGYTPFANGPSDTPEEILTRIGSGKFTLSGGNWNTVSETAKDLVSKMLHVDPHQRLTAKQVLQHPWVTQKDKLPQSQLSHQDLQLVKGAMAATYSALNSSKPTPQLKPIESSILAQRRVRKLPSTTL
In short: as §1

SMILES | % change of MS signal compared to control sample (CHK1) | % change of MS signal compared to control sample (CHK2) | % change of MS signal compared to control sample (MAP2K4) | % change of MS signal compared to control sample (MAP2K5) | % change of MS signal compared to control sample (MST3) | % change of MS signal compared to control sample (SMG1) | % change of MS signal compared to control sample (kinases in BCWM.1 cells [1]) | % change of MS signal compared to control sample (kinases in BCWM.1 cells [2]) | % change of MS signal compared to control sample (kinases in BCWM.1 cells [4]) | % change of MS signal compared to control sample (kinases in BCWM.1 cells [5]) | % change of MS signal compared to control sample (kinases in BCWM.1 cells [6]) | % change of MS signal compared to control sample (kinases in BCWM.1 cells [7]) | % change of MS signal compared to control sample (kinases in BCWM.1 cells [8]) | % change of MS signal compared to control sample (kinases in BCWM.1 cells [9]) | % change of MS signal compared to control sample (kinases in BCWM.1 cells [10]) | % change of MS signal compared to control sample (kinases in BCWM.1 cells [11]) | % change of MS signal compared to control sample (kinases in BCWM.1 cells [12]) | % change of MS signal compared to control sample (kinases in BCWM.1 cells [13]) | % change of MS signal compared to control sample (kinases in BCWM.1 cells [14]) | % change of MS signal compared to control sample (kinases in BCWM.1 cells [15]) | also measured
C=CC(=O)N1CCC(CNc2nccc(Nc3ncc(C(=O)Nc4c(C)cccc4C)s3)n2)C1 (racemic) [Example I-8] | 15.3% and 24.7% | −14.3% and −10.9% | −8.5% and −6.1% | 19.2% and 30.9% | −1.5% and −7.7% | 23.1% |  |  |  |  |  |  |  |  |  |  |  |  |  |  | 
C=CC(=O)N1CC[C@H](Nc2nccc(Nc3ncc(C(=O)Nc4c(C)cccc4C)s3)n2)C1 [Example I-3] |  |  |  |  |  |  | −17.2% | 4% | 9.9% | 96.7% | 22.3% | −17.6% | −8.6% | −15.2% | 7.3% | −6.2% | −29.4% | −47.2% | −17.7% | −9.9% | % change of MS signal compared to control sample (kinases in BCWM.1 cells [3]; ZC1/HGK, Lys1, 1 μM, 90 min, GF): −16.8%; % change of MS signal compared to control sample (kinases in BCWM.1 cells [16]): 17.3%; % change of MS signal compared to control sample (kinases in BCWM.1 cells [17]): 1.6%; % change of MS signal compared to control sample (kinases in BCWM.1 cells [18]): −4.1%
C=CC(=O)N1CC[C@@H](Nc2nccc(Nc3ncc(C(=O)Nc4c(C)cccc4C)s3)n2)C1 [Example I-4] | 24.1% | −7.9% and 1.0% | −48.8% |  |  |  |  |  |  |  |  |  |  |  |  |  |  |  |  |  | % change of MS signal compared to control sample (CDK5): −7.1% and −7.2%; % change of MS signal compared to control sample (IRAK4): 17.8% and 25.9%; % change of MS signal compared to control sample (LOK): −27.4%; % change of MS signal compared to control sample (MAP2K3): −12.3% and −18.8%; % change of MS signal compared to control sample (PLK1): 17.4%; % change of MS signal compared to control sample (RSK1 domain 1): −62.2% and −53.4%
C=CC(=O)N1CCCCC(Nc2nccc(Nc3ncc(C(=O)Nc4c(C)cccc4C)s3)n2)C1 (stereo not drawn) [Example I-7] |  |  |  | 37.6% and 45.7% |  | 21.5% |  |  |  |  |  |  |  |  |  |  |  |  |  |  | 
CCC(=O)N1CC[C@H](Nc2nccc(Nc3ncc(C(=O)Nc4c(C)cccc4C)s3)n2)C1 [Example I-9] |  |  |  |  |  |  | −9.7% | 13.9% | −9.2% | 86.1% | 5.3% | −3.8% | −0.6% | −8.3% | −1.7% | −15.7% | −0.9% | −9.6% | −9.4% | −12.6% | % change of MS signal compared to control sample (kinases in BCWM.1 cells [3]): 15.3%; % change of MS signal compared to control sample (kinases in BCWM.1 cells [16]): −1.2%; % change of MS signal compared to control sample (kinases in BCWM.1 cells [17]): 4.3%; % change of MS signal compared to control sample (kinases in BCWM.1 cells [18]): −3.1%
C=CC(=O)N1CCC(Cn2ccc(Nc3ncc(C(=O)Nc4c(C)cccc4Cl)s3)n2)C1 (stereo not drawn) [II-1] |  |  |  |  | 5.9% and 2.0% |  |  |  |  |  |  |  |  |  |  |  |  |  |  |  | % change of MS signal compared to control sample (CDK5): −11.2% and −8.0%; % change of MS signal compared to control sample (IRAK4): 15.9% and 18.5%; % change of MS signal compared to control sample (LOK): −5.5% and −15.4%; % change of MS signal compared to control sample (MAP2K3): −19.5% and −15.9%; % change of MS signal compared to control sample (PLK1): 0.5% and −0.2%; % change of MS signal compared to control sample (RSK1 domain 1): −76.3%
